Entries after “also recorded” stand apart in the source; their conditions may differ.
How the values were obtained:
Type in all cases: cell-based
[1] = test system: Human 3D MelanoDerm MEL-B skin tissues; test: Melanin in 3D skin models (SOLVABLE melanin assay); settings: 14 consecutive days, n=6, change from control, niacinamide 0.1%; for B (% change in pigmentation): active B of Table 8 alone, hexylresorcinol 0.05%; for A (% change in pigmentation): active A of Table 8 alone, TDPA 1%
Description: A series of experiments was conducted to assess the effects of treatment regimens of active ingredients shown in Table 8 on the production of melanin in 3D models. Four different treatment regimens were assessed: (1) active ingredient A, alone; (2) active ingredient B, alone; (3) the combination of active ingredients A+B; and (4) active ingredient A, alone, followed by active ingredient B, alone, as detailed in Table 8. For treatment regimens (1), (2), and (3), the active ingredients were applied to cells for 14 consecutive days. For treatment regimen (4) (sequential regimen), the cells were treated with active ingredient A for 7 days, followed by treatment with the other active ingredient B for 7 days.
Human 3D MelanoDerm MEL-B skin tissues (available from MatTek, Mass.) were cultured following the manufacture instructions. Different skin tissue models were assigned to one of treatment regimens (1)-(4) as described above, with six models allocated to each treatment regimen (i.e., n=6). All active ingredients were prepared as emulsions and applied directly to the skin models. Following treatment, skin tissue models were collected and the amount of melanin produced from the cells was measured using a SOLVABLE melanin assay. Treated skin tissues were prepared using a phosphate buffer saline and sodium bicarbonate. Each skin tissue is added to 500 μl of 0.5 M SOLVABLE solubilizer (available from Packard BioScience) and incubated at 95° overnight. The absorbance of each skin tissue sample is measured at 490 nm and the absorbance is compared to a standard curve to indicate the amount of melanin produced and pigmentation in each skin tissue model.
The results for treatments measuring the melanin content produced are shown in Table 9 as a percentage change from control (i.e., untreated samples or samples treated with the same emulsion but in absence of active ingredients).

[2] = test system: human dermal fibroblast (HDF) cells; test: Hyaluronic Acid (HA) assessment in human dermal fibroblasts; settings: 10 consecutive days, n=6, change over emulsion control, retinol 1 μM; for B alone (% change in HA): active B of Table 3 alone, niacinamide 0.1%, Coleus forskohlii 0.001%, Tiliacora triandra 0.1%, Tetrapeptide 4 0.10%, phytol 0.010%; for A alone (% change in HA): active A of Table 3 alone, Tiliacora triandra 0.10%, glycolic acid 1 mM, KTFK 0.001%, sodium glycolate 10 μM
Description: A series of experiments was conducted to assess the effects of the treatment regimens of active ingredients on the production of hyaluronic acid (HA) in human dermal fibroblast (HDF) cells. The following five treatment regimens were assessed: (1) active ingredient A, alone; (2) active ingredient B, alone; (3) the combination of active ingredients A+B; (4) active ingredient A, alone, followed by active ingredient B, alone (“A/B”); and (5) active ingredient B, alone, followed by active ingredient A, alone (“B/A”). For treatment regimens (1), (2), and (3), the active ingredients were administered to cells for 10 consecutive days. For treatment regimens (4) and (5) (sequential regimens), the cells were treated with active ingredient A or active ingredient B for 5 days, followed by active ingredient B or active ingredient A for 5 days, respectively.
Human dermal fibroblast cells were grown in 96-well plates in DMEM media (available from CORNING, N.Y.) supplemented with 10% FBS and L-glutamine. After reaching about 75% confluence, cells were transferred into DMEM media without FBS, and incubated for 4-6 hours. Different wells were assigned to one of treatment regimens (1)-(5) as described above, with six wells allocated to each treatment regimen (i.e., n=6). All active ingredients were prepared as emulsions and applied directly to the HDF cells. The specific active ingredients used in each of the five treatment regimens are provided below in Table 3. Following treatment, cells were collected and the amount of hyaluronic acid (HA) secreted from the cells was measured using a commercially available HA assay (available from CORGENIX Inc., CO).
The results are summarized below in Table 4 and plotted in FIGS. 13-17 as a percentage change over control (i.e. cells treated with the same emulsion but in absence of active ingredients).

[3] = test system: human dermal fibroblast (HDF) cells; test: Hyaluronic acid in human dermal fibroblasts, pulsed versus daily treatment; settings: for % Change in HA over control (daily): 12 consecutive days; for % Change in HA over control (daily) / % Change in HA over control (pulsed): Tiliacora triandra 0.05%, niacinamide 0.10%, glycolic acid 1 mM, retinol 1 μM, phytol 0.01%; for % Change in HA over control (pulsed): 2 days active / 2 days media without active, repeated over 12 days; for HA production, pulsed treatment compared with daily treatment: pulsed uses half as much active over 12 days
Description: After reaching about 75% confluence, cells were transferred into DMEM media without FBS, and incubated for 4-6 hours. Different wells were assigned to one of treatment regimens (1)-(2) as described above, with six wells allocated to each treatment regimen. All active ingredients were prepared as emulsions and applied directly to the HDF cells. […] Following treatment, cells were collected and the amount of hyaluronic acid (HA) secreted from the cells was measured using a commercially available HA assay (available from […] Inc., CO).

[4] = test system: Human dermal fibroblast cells; test: Pro-collagen I secretion by human dermal fibroblasts (HTRF human pro-collagen I kit); settings: 0.0001% phytol or 1 μM retinol alone for 16 days, re-treated every other day
Description: Human dermal fibroblast cells were grown in a 6-well plate in DMEM media (available from Corning, N.Y.) supplemented with 10% Fetal Bovine Serum (FBS) and L-glutamine (1.5×10^5 cells/plate) overnight. After reaching about 75% confluence, cells were transferred into DMEM media without FBS and incubated for 4-6 hours. Next, the cells were treated with either 0.0001% phytol or 1 μM retinol. Treatment with either phytol alone, or retinol alone was performed in DMEM media without FBS for 16 days. For sequential treatments, the cells were treated with 0.0001% phytol for 6 days followed by 1 μM retinol for 10 days, or with 1 μM retinol for 6 days, followed by 0.0001% phytol for 10 days. Every other day, media were collected and cells were re-treated with phytol or retinol in the same fashion. After treatment, the amount of collagen secreted into the culture media was determined using the HTRF human pro-collagen I kit (available from CISBIO, Inc).

[5] = test system: human dermal fibroblast (HDF) cells; test: Pro-collagen type I assessment in human dermal fibroblasts (ELISA); settings: 10 consecutive days, change from emulsion control, retinol 1 μM; for A alone (% change in pro-collagen): active A of Table 6 alone, phytol 0.0001%
Description: A series of experiments was conducted to assess the effects of the treatment regimens of active ingredients shown in Table 6 on the production of pro-collagen type I in human dermal fibroblast (HDF) cells. Five different treatment regimens were assessed: (1) active ingredient A, alone; […] (3) the combination of active ingredients A+B; […] For treatment regimens (1), (2), and (3), the active ingredients were applied to cells for 10 consecutive days. […] After reaching about 75% confluence, cells were transferred into DMEM media without FBS, and incubated for 4-6 hours. Different wells were assigned to one of treatment regimens (1)-(5) as described above, with six wells allocated to each treatment regimen. All active ingredients were prepared as emulsions and applied directly to the HDF cells. The specific active ingredients used in each of the five treatment regimens are provided below in Table 6. Following treatment, measurements on the amount of pro-collagen produced from the cells were performed using a commercially available pro-collagen type I enzyme-linked immuno sorbent assay (ELISA) kit (available from TAKARA Inc., KR). [table]

[6] = test system: Human 3D skin EFT400FT tissues; test: HA in full thickness 3D skin models; settings: 4 consecutive days, n=12; 4% glycolic acid topically or 0.2% Tiliacora triandra via growth media
Description: A series of experiments was conducted to assess the effects of the treatment regimens of glycolic acid and Tiliacora triandra on the production of hyaluronic acid (HA) on full thickness 3D skin cultures. Five different treatment regimens were assessed: (1) 4% glycolic acid, alone; (2) 0.2% Tiliacora triandra, alone; (3) the combination of 4% glycolic acid+0.2% Tiliacora triandra; (4) 4% glycolic acid, alone, followed by 0.2% Tiliacora triandra, alone; and (5) 0.2% Tiliacora triandra, alone, followed by 4% glycolic acid, alone. Glycolic acid was administered topically to the 3D tissue and Tiliacora triandra was administered via the growth media. For treatment regimens (1), (2), and (3), the active ingredient or ingredients were applied to cells for 4 consecutive days. For treatment regimens (4) and (5) (sequential regimens), the cells were treated with glycolic acid or Tiliacora triandra for 2 days, followed by Tiliacora triandra or glycolic acid for 2 days, respectively.
Human 3D skin EFT400FT tissues (MatTek, Mass.) were cultured following the manufacturer's instructions. Each treatment regimen was applied to twelve 3D skin samples. […] Following treatment, cells were collected and the amount of hyaluronic acid secreted from the cells was measured using a commercially available HA assay (available from CORGENIX Inc., CO). […]

Compound | B alone (% change in HA) [2] [%] | % Change in HA over control (daily) [3] [%] | % Change in HA over control (pulsed) [3] [%] | A alone (% change in HA) [2] [%] | HA production, pulsed treatment compared with daily treatment [3] | other results
CCCCCCc1ccc(O)cc1O [Hexylresorcinol] |  |  |  |  |  | B (% change in pigmentation) [1]: 140.4%
NC(=O)c1cccnc1 [Niacinamide] | −51.6 | −36.5 | 1.3 |  |  | A (% change in pigmentation) [1]: −18.9%; B (% change in pigmentation) [1]: −18.9%
Tetrapeptide-4 [Tetrapeptide 4] | 15.1 |  |  |  |  | 
O=C([O-])CO.[Na+] [Sodium Glycolate] |  |  |  | −2.54 |  | 
O=C(O)CCSCCC(=O)O [TDPA, thiodipropionic acid] |  |  |  |  |  | A (% change in pigmentation) [1]: −19.1%
C/C(=C\CO)CCC[C@H](C)CCC[C@H](C)CCCC(C)C [Phytol] | 67.7 | −4.0 | 25.1 |  | significantly more production of hyaluronic acid than in daily treatment regimens | pro-collagen production over treatment time [4]: declines for both phytol- and retinol-treated cells after day 13 despite continuing treatment; also recorded: plateau in effectiveness over time; A alone (% change in pro-collagen) [5]: 19.1%
O=C(O)CO [Glycolic Acid] |  | 9.1 | 5.1 | 20.8 | only slightly less effective than daily treatment | percentage change in HA over control, active alone [6]: 42.6%
Lys-Thr-Phe-Lys (KTFK; printed: Lys-Thr-Phe-Lys) |  |  |  | 23.7 |  | 
CC1=C(/C=C/C(C)=C/C=C/C(C)=C/CO)C(C)(C)CCC1 [Retinol] | 11.7 | 17.2 | 32.0 | 11.7 | significantly more production of hyaluronic acid than in daily treatment regimens | pro-collagen production over treatment time [4]: declines for both phytol- and retinol-treated cells after day 13 despite continuing treatment; also recorded: plateau in effectiveness over time; A alone (% change in pro-collagen) [5]: 13.6%; B alone (% change in pro-collagen) ([5]; active B of Table 6 alone, Coleus forskohlii 0.001%): 3.9%
